“Also recorded” adds a separate entry of the source.
Columns and labels:
tight skin (Tsk-1) mice = assay: Tight skin (Tsk-1) mice skin fibrosis model; type: in vivo, mouse; conditions: 30 mg/kg/day; reference imatinib
Text: (§1) Two models of skin fibrosis were used to evaluate the effect of Compound 1 in comparison with imatinib mesylate, used as a reference.

[1] = tested on: bleomycin-induced skin fibrosis; assay: Bleomycin-induced skin fibrosis model, therapeutic protocol; type: in vivo, mouse; conditions: 50 mg/kg/day
Text: as §1

[2] = tested on: patients with early dcSSc; assay: Phase 2 8-week double-blind placebo-controlled study with 16-week open-label extension; type: in vivo, human
Text: The primary end point was safety during the double-blind phase of the trial. Exploratory end points included the identification of an LPA-induced gene signature in patients' skin.
Seventeen of 32 patients were randomly assigned to receive placebo and 15 to receive Compound 1. Thirty patients participated in the open-label extension study. […] At week 8, the reduction in MRSS was numerically greater in the Compound 1 group than in the placebo group (mean±SD change −3.57±4.18 versus −2.76±4.85; treatment effect −1.2 [95% confidence interval −4.37, 2.02]).

[3] = tested on: hypertension-induced or nephrotoxicity-induced renal failure; assay: Models of hypertension-induced or nephrotoxicity-induced renal failure; conditions: in vivo
Text: (§2) All these pathological events can be observed in SSc patients at different levels and further support the use of Compound 1 in these patients.

Phase 1 studies = type: in vivo; conditions: multiple Phase 1 studies
Text: See, Khanna, et al. (2007) Curr Rheumatol Rep. 9:151-7, which is incorporated herein by reference for all purposes.

models of thrombosis [4] = assay: Acute models of coagulation and arterial thrombosis (rats); type: in vivo; conditions: two models in rats
Text: as §2

[5] = target: lysophosphatidic acid receptor 1 (LPAR1) (Homo sapiens, UniProt Q92633); conditions: cited from earlier work
Chain of lysophosphatidic acid receptor 1 (LPAR1) (Q92633 whole entry, species assumed): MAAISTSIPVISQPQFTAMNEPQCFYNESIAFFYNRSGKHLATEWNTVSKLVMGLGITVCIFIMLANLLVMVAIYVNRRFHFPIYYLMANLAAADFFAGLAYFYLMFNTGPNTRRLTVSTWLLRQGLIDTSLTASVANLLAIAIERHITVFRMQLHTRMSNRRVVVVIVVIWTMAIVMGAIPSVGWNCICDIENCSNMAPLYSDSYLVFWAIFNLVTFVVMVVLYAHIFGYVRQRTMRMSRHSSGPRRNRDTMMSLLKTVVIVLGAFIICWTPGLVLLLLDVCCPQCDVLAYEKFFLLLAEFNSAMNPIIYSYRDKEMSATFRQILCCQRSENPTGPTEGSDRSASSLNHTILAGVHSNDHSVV

models of thrombosis [6] = assay: Model of thrombosis (mouse); type: in vivo; conditions: one model in mouse
Text: as §2

[7] = tested on: presensitized mice treated with ovalbumin; assay: Broncho-alveolar lavage of presensitized mice treated with ovalbumin; conditions: mouse, in vivo
[8] = tested on: hypertension or diabetes-related cardiac hypertrophy, fibrosis and heart failure; assay: Models of hypertension or diabetes-related cardiac hypertrophy, fibrosis and heart failure; conditions: in vivo
Text: as §2

[9] = 24-weeks of continuous treatment
[10] = Subjects switched from placebo to Compound 1 (16-week open label extension)
[11] = initial Compound 1 group, treatment up to 24 weeks, versus baseline

**Q.** With `COc1ccc(C(=O)NC2(C(=O)O)Cc3ccccc3C2)cc1OCCc1cccc(C)c1` [Compound 1, 2-(4-methoxy-3-(3-methylphenethoxy)benzamido)-2,3-dihydro-1H-indene-2-carboxylic acid] as the compound, how does the “progression of skin fibrosis” value (tight skin (Tsk-1) mice) read?
**A.** inhibit the progression of skin fibrosis at a similar level than imatinib

**Q.** What about the “collagen content in mouse skin” value ([1]; therapeutic protocol) of the same compound?
**A.** able to reverse

**Q.** And the “dermal thickness in mouse skin” value ([1]; therapeutic protocol)?
**A.** able to reverse

**Q.** And the “myofibroblast differentiation in mouse skin” value ([1]; therapeutic protocol)?
**A.** able to reverse

**Q.** And the “effect on these markers compared with imatinib” value ([1]; reference imatinib mesylate)?
**A.** comparable with the effects of imatinib

**Q.** What about the “Median Decrease in mRSS” value [2, 9] of the same compound?
**A.** −7.5

**Q.** What about the “Responder Rate” value [2, 9] of the same compound?
**A.** 78.6%

**Q.** And the “LPA-related genes, biomarker analysis of skin biopsies” value ([2]; FIG. 1)?
**A.** reductions

**Q.** And the “Modified Rodnan Skin Score (mRSS)” value ([2]; Phase 2 double-blind phase and open label extension)?
**A.** improvement

**Q.** And the “Median Decrease in mRSS” value [2, 10]?
**A.** −7.0

**Q.** What about the “Responder Rate” value [2, 10] of the same compound?
**A.** 69.2%

**Q.** And the “most frequent adverse events” value ([2]; blinded phase)?
**A.** headache, diarrhea, nausea, and falling

**Q.** And the “MRSS during the study” value ([2]; difference was not significant)?
**A.** improved

**Q.** What about the “tolerability in patients with dcSSc” value ([2]; in vivo) of the same compound?
**A.** well tolerated

**Q.** What about the “disease biomarker COMP” value [2, 11] of the same compound?
**A.** numerical improvement versus baseline

**Q.** And the “disease biomarker TSP1” value [2, 11]?
**A.** numerical improvement versus baseline

**Q.** What about the safety profile ([2]; open-label extension) of the same compound?
**A.** acceptable

**Q.** What about the “reduction of LPA-related genes in skin samples versus placebo” value ([2]; week 8) of the same compound?
**A.** greater reduction

**Q.** And the “change in MRSS (mean±SD)” value ([2]; week 8, double-blind phase)?
**A.** −3.57±4.18

**Q.** What about the “treatment effect on MRSS versus placebo” value ([2]; week 8, 95% confidence interval −4.37, 2.02) of the same compound?
**A.** −1.2

**Q.** What about the HAQ-DI ([2]; week 24) of the same compound?
**A.** clinically significant improvement

**Q.** What about the kidney fibrosis [3] of the same compound?
**A.** inhibits fibrosis

**Q.** What about the kidney function [3] of the same compound?
**A.** improved kidney function

**Q.** And the safety and tolerability (Phase 1 studies)?
**A.** safe and well tolerated

**Q.** What about the antithrombotic activity (models of thrombosis [4]) of the same compound?
**A.** moderate but significant antithrombotic activity; also recorded: demonstrated antithrombotic activity

**Q.** And the “antagonist of lysophosphatidic acid receptor 1 (LPAR1)” value [5]?
**A.** potent antagonist

**Q.** What about the antithrombotic activity (models of thrombosis [6]) of the same compound?
**A.** demonstrated antithrombotic activity

**Q.** And the “accumulation of leukocytes and total inflammatory cells in broncho-alveolar lavage” value [7]?
**A.** significant inhibitory effect

**Q.** And the “inflammation in a model of lung injury with predominant Th2-type response” value [7]?
**A.** reduces inflammation

**Q.** And the arterial stiffness [8]?
**A.** positive effect

**Q.** And the blood pressure [8]?
**A.** mostly unchanged

**Q.** And the “cardiac function and structure” value [8]?
**A.** beneficial effect

**Q.** And the “cardiac systolic and diastolic function” value [8]?
**A.** improves

**Q.** What about the heart fibrosis [8] of the same compound?
**A.** inhibits fibrosis
